Numbered stars: 1 amine (or outer) side, 2 acyl side, 3 side chain; on linkers, the order of the positions; unused ones are H or OH. Bridge positions count the residues as written; N and C are the ends. Square brackets hold non-standard residues; d marks the D form. Peptide text beside a SMILES is read from it. * marks the point of attachment. hPhe(3,5-F2-4-CF3) = N[C@@H](CCc1cc(F)c(C(F)(F)F)c(F)c1)C(=O)O; hPhe(3-Cl-4-CF3) = N[C@@H](CCc1ccc(C(F)(F)F)c(Cl)c1)C(=O)O; hPhe(3-F,4-CF3) = N[C@@H](CCc1ccc(C(F)(F)F)c(F)c1)C(=O)O; NEtPhe(4-CF3) = CCN[C@@H](Cc1ccc(C(F)(F)F)cc1)C(=O)O; NMePhe(4-CF3) = CN[C@@H](Cc1ccc(C(F)(F)F)cc1)C(=O)O; NMeAbu(4,4,4-F3) = CN[C@@H](CC(F)(F)F)C(=O)O; NMePhe(4-Cl) = CN[C@@H](Cc1ccc(Cl)cc1)C(=O)O; NMePhe(4-Me) = CN[C@@H](Cc1ccc(C)cc1)C(=O)O; NMedβ3hAla = C[C@H](CC(=O)[*:2])N(C)[*:1]; NMeGly(cPent) = CN[C@H](C(=O)O)C1CCCC1; NMehPhe = CN[C@@H](CCc1ccccc1)C(=O)O; NMeCha = CN[C@@H](CC1CCCCC1)C(=O)O; NMehLeu = CN[C@@H](CCC(C)C)C(=O)O; Hyp = O=C(O)[C@@H]1C[C@@H](O)CN1; NMeChg = CN[C@H](C(=O)O)C1CCCCC1; NMeI = CC[C@H](C)[C@H](NC)C(=O)O; NMeD = CN[C@@H](CC(=O)O)C(=O)O; NMeL = CN[C@@H](CC(C)C)C(=O)O; NMeV = CN[C@H](C(=O)O)C(C)C; Trifluoroethyl = FC(F)(F)C*; d(β3hA) = C[C@@H](N)CC(=O)O; NMeS = CN[C@@H](CO)C(=O)O; dPip = O=C(O)[C@H]1CCCCN1; Morpholide = C1CN(*)CCO1; NMeA = CN[C@@H](C)C(=O)O; Piperidide = C1CCN(*)CC1; Pyrrolidide = C1CCN(*)C1; dNMeA = CN[C@H](C)C(=O)O; Ac5c = NC1(C(=O)O)CCCC1; Aze = O=C(O)[C@@H]1CCN1; Ac4c = NC1(C(=O)O)CCC1; NEtG = CCNCC(=O)O; Sar = CNCC(=O)O
Tests used:
[1] = test system: Human pancreatic cancer cell line AsPC-1 (G12D mutation Kras); experiment: AsPC-1 cell growth inhibition (AsPC-1 CGI); assay type: cell-based; details: read-out: AsPC-1 cell growth inhibition, 50% growth inhibitory concentration (IC50 value); 96 hours, CellTiter-Glo, values classified in ranges
Experimental: Test compounds were serially dilated with dimethyl sulfoxide, and 200 nL was then dispensed to a U-bottom 96-well plate using Labcyte Echo. […] The cell suspension was dispensed to a. plate containing a test compound at 100 μL per well and incubated at 37° C. in a 5% carbon dioxide gas incubator. 96 hours later, 80 μL of CellTiter-Glo (Promega) was added to each well and fluorescence was measured.

[2] = target: protein-protein interaction between Kras and SOS1 (biotin-tagged human Kras loaded with GDP, His-tagged human SOS1) (Homo sapiens (Human), UniProt P01116, G12D); experiment: Protein-protein interaction inhibition between Kras and SOS1 (KrasG12D-SOS PPI) using AlphaScreen; assay type: biochemical; details: AlphaScreen; biotin-tagged human Kras loaded with GDP, His-tagged human SOS1; read-out: KRAS G12D-SOS PPI IC50;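 further: kras produced in E. coli, Ni-coupled donor beads and streptavidin acceptor beads, excitation 680 nm with emission detected at 520–620 nm via singlet oxygen transfer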

| Structure (SMILES) | IC50 [1] [nM] | IC50 [2] [nM] |
| --- | --- | --- |
| CCO[C@@H]1C[C@H]2C(=O)NC3(CCCC3)C(=O)N(C)[C@@H](C3CCCC3)C(=O)N(C)[C@H](C)CC(=O)N(C)[C@@H](CC(C)C)C(=O)N[C@@H]([C@@H](C)CC)C(=O)N(C)[C@@H](C)C(=O)N3CC[C@H]3C(=O)N(CC)[C@@H](Cc3ccc(C(F)(F)F)cc3)C(=O)N(C)CC(=O)N[C@@H](CCc3cc(F)c(C(F)(F)F)c(F)c3)C(=O)N2C1 [Compound 466] (cyclo([Ac5c][NMeGly(cPent)][NMedβ3hAla][NMeL]I[NMeA][Aze][NEtPhe(4-CF3)][Sar][hPhe(3,5-F2-4-CF3)][Hyp](Et))) | ≤ 20 | 3.1 |
| CCO[C@@H]1C[C@H]2C(=O)NC3(CCC3)C(=O)N(C)[C@@H](C3CCCCC3)C(=O)N(C)[C@H](C(=O)N3CCCC3)CC(=O)N(C)[C@@H](CC(C)C)C(=O)N[C@@H]([C@@H](C)CC)C(=O)N(C)CC(=O)N(C)CC(=O)N(C)[C@@H](CC3CCCCC3)C(=O)N(C)CC(=O)N[C@@H](CCc3cc(F)c(C(F)(F)F)c(F)c3)C(=O)N2C1 [Compound 1366] ([NMeL]I[Sar][Sar][NMeCha][Sar][hPhe(3,5-F2-4-CF3)][Hyp](Et)[Ac4c][NMeChg][NMeD]-Pyrrolidide; lactam N-11) | ≤ 20 | 0.63 |
| CC[C@H](C)[C@@H]1NC(=O)[C@H](CC(C)C)N(C)C(=O)C[C@@H](C)NC(=O)[C@H](C2CCCC2)N(C)C(=O)[C@@H](C)NC(=O)[C@@H]2CCCN2C(=O)[C@H](CCc2ccc(C(F)(F)F)c(Cl)c2)NC(=O)CN(C)C(=O)[C@H](Cc2ccc(C)cc2)N(C)C(=O)[C@@H]2CCN2C(=O)[C@H](C)N(C)C1=O [Compound 1222] (cyclo([Aze][NMePhe(4-Me)][Sar][hPhe(3-Cl-4-CF3)]P[dA][NMeGly(cPent)][d(β3hA)][NMeL]I[NMeA])) | > 500 | 25 |
| CC[C@H](C)[C@@H]1NC(=O)[C@H](CC(C)C)N(C)C(=O)C[C@@H](C(=O)N(C)C)N(C)C(=O)[C@H](C2CCCC2)N(C)C(=O)C2(CCCC2)NC(=O)[C@@H]2CCCN2C(=O)[C@H](CCc2ccc(C(F)(F)F)c(F)c2)NC(=O)CN(CC)C(=O)[C@H](CC2CCCCC2)N(C)C(=O)[C@@H]2CCN2C(=O)[C@H](C)N(C)C1=O [Compound 1205] ([NMeL]I[NMeA][Aze][NMeCha][NEtG][hPhe(3-F,4-CF3)]P[Ac5c][NMeGly(cPent)][NMeD]-NMe2; lactam N-11) | ≤ 20 | 2.8 |
| CC[C@H](C)[C@@H]1NC(=O)[C@H](CC(C)C)N(C)C(=O)C[C@@H](C(=O)N2CCCC2)N(C)C(=O)[C@H]([C@@H](C)CC)N(C)C(=O)C2(CCCC2)NC(=O)[C@@H]2CCCN2C(=O)[C@H](CCc2ccc(C(F)(F)F)c(Cl)c2)NC(=O)CN(C)C(=O)[C@H](C2CCCC2)N(C)C(=O)[C@@H]2CCN2C(=O)[C@H](C)N(C)C1=O [Compound 799] ([NMeL]I[NMeA][Aze][NMeGly(cPent)][Sar][hPhe(3-Cl-4-CF3)]P[Ac5c][NMeI][NMeD]-Pyrrolidide; lactam N-11) | ≤ 20 | 1.4 |
| CC[C@H](C)[C@@H]1NC(=O)[C@H](C)N(C)C(=O)C[C@@H](C)NC(=O)[C@H](C2CCCC2)N(C)C(=O)C2(CCCC2)NC(=O)[C@@H]2CCCN2C(=O)[C@H](CCc2ccc(C(F)(F)F)c(Cl)c2)NC(=O)CN(C)C(=O)[C@H](Cc2ccc(C)cc2)N(C)C(=O)[C@@H]2CCCN2C(=O)CN(C)C1=O [Compound 151] (cyclo([Ac5c][NMeGly(cPent)][d(β3hA)][NMeA]I[Sar]P[NMePhe(4-Me)][Sar][hPhe(3-Cl-4-CF3)]P)) | > 500 | 5 |
| CC[C@H](C)[C@@H]1NC(=O)[C@H](C)N(C)C(=O)C[C@@H](C(=O)N2CCCCC2)N(C)C(=O)[C@H](C(C)C)N(C)C(=O)C2(CCCC2)NC(=O)[C@@H]2CCCN2C(=O)[C@H](CCc2ccc(C(F)(F)F)c(Cl)c2)NC(=O)[C@H]2CCCCN2C(=O)[C@H](CC2CCCCC2)N(C)C(=O)[C@@H]2CCCN2C(=O)CN(C)C1=O [Compound 823] ([NMeA]I[Sar]P[NMeCha][dPip][hPhe(3-Cl-4-CF3)]P[Ac5c][NMeV][NMeD]-Piperidide; lactam N-11) | > 500 | 16 |
| CC[C@H](C)[C@@H]1NC(=O)[C@H](CCC(C)C)N(C)C(=O)C[C@@H](C(=O)N(C)C)N(C)C(=O)[C@H]([C@@H](C)CC)N(C)C(=O)C2(CCCC2)NC(=O)[C@@H]2CCCN2C(=O)[C@H](CCc2ccc(C(F)(F)F)c(Cl)c2)NC(=O)CN(C)C(=O)[C@H](Cc2ccc(C)cc2)N(C)C(=O)[C@@H]2CCN2C(=O)[C@H](C)N(C)C1=O [Compound 1042] ([NMehLeu]I[NMeA][Aze][NMePhe(4-Me)][Sar][hPhe(3-Cl-4-CF3)]P[Ac5c][NMeI][NMeD]-NMe2; lactam N-11) | ≤ 20 | 0.72 |
| CC[C@H](C)[C@@H]1NC(=O)[C@H](CC(C)C)N(C)C(=O)C[C@@H](C(=O)N(C)C)N(C)C(=O)[C@H]([C@@H](C)CC)N(C)C(=O)[C@H](C)NC(=O)[C@@H]2CCCN2C(=O)[C@H](CCc2ccc(C(F)(F)F)c(Cl)c2)NC(=O)CN(C)C(=O)[C@H](Cc2ccc(C)cc2)N(C)C(=O)[C@@H]2CCN2C(=O)[C@H](C)N(C)C1=O [Compound 829] ([NMeL]I[NMeA][Aze][NMePhe(4-Me)][Sar][hPhe(3-Cl-4-CF3)]PA[NMeI][NMeD]-NMe2; lactam N-11) | > 500 | 2.3 |
| CC[C@H](C)[C@@H]1NC(=O)[C@H](CC(C)C)N(C)C(=O)C[C@@H](C(=O)N2CCCC2)N(C)C(=O)[C@H]([C@@H](C)CC)N(C)C(=O)C2(CCCC2)NC(=O)[C@@H]2CCCN2C(=O)[C@H](CCc2ccc(C(F)(F)F)c(Cl)c2)NC(=O)CN(C)C(=O)[C@H](Cc2ccc(C(F)(F)F)cc2)N(C)C(=O)[C@@H]2CCN2C(=O)[C@H](C)NC1=O [Compound 1360] ([NMeL]IA[Aze][NMePhe(4-CF3)][Sar][hPhe(3-Cl-4-CF3)]P[Ac5c][NMeI][NMeD]-Pyrrolidide; lactam N-11) | ≤ 20 | 0.97 |
| CCO[C@@H]1C[C@H]2C(=O)NC3(CCCC3)C(=O)N(C)[C@@H](C3CCCCC3)C(=O)N(C)[C@H](C(=O)N3CCOCC3)CC(=O)N(C)[C@@H](CC(F)(F)F)C(=O)N[C@@H]([C@@H](C)CC)C(=O)N(C)CC(=O)N(C)CC(=O)N(C)[C@@H](Cc3ccc(C(F)(F)F)cc3)C(=O)N(C)CC(=O)N[C@@H](CCc3ccc(C(F)(F)F)c(Cl)c3)C(=O)N2C1 [Compound 1206] ([NMeAbu(4,4,4-F3)]I[Sar][Sar][NMePhe(4-CF3)][Sar][hPhe(3-Cl-4-CF3)][Hyp](Et)[Ac5c][NMeChg][NMeD]-Morpholide; lactam N-11) | ≤ 20 | 0.57 |
| CC[C@H](C)[C@@H]1NC(=O)[C@H](CC(C)C)N(C)C(=O)C[C@@H](C(=O)N(C)C)N(C)C(=O)[C@H](C2CCCC2)N(C)C(=O)[C@H](C)NC(=O)[C@@H]2CCCN2C(=O)[C@H](CCc2ccc(C(F)(F)F)c(Cl)c2)NC(=O)CN(C)C(=O)[C@H](CC2CCCCC2)N(C)C(=O)[C@@H]2CCN2C(=O)[C@H](C)N(C)C1=O [Compound 314] ([NMeL]I[NMeA][Aze][NMeCha][Sar][hPhe(3-Cl-4-CF3)]PA[NMeGly(cPent)][NMeD]-NMe2; lactam N-11) | > 500 | 2.6 |
| CC[C@H](C)[C@@H]1NC(=O)[C@H](C)N(C)C(=O)C[C@@H](C)NC(=O)[C@H](C2CCCC2)N(C)C(=O)C2(CCCC2)NC(=O)[C@@H]2CCCN2C(=O)[C@H](CCc2ccc(C(F)(F)F)c(Cl)c2)NC(=O)[C@@H](C)N(C)C(=O)[C@H](Cc2ccc(Cl)cc2)N(C)C(=O)[C@@H]2CCN2C(=O)[C@H](C)N(C)C1=O [Compound 720] (cyclo([Ac5c][NMeGly(cPent)][d(β3hA)][NMeA]I[NMeA][Aze][NMePhe(4-Cl)][dNMeA][hPhe(3-Cl-4-CF3)]P)) | > 500 | 39 |
| CC[C@H](C)[C@@H]1NC(=O)[C@H](CC(C)C)N(C)C(=O)C[C@@H](C(=O)N2CCCCC2)N(C)C(=O)[C@H](C(C)C)N(C)C(=O)C2(CCCC2)NC(=O)[C@@H]2CCCN2C(=O)[C@H](CCc2ccc(C(F)(F)F)c(Cl)c2)NC(=O)CN(C)C(=O)[C@H](COCC(F)(F)F)N(C)C(=O)[C@@H]2CCN2C(=O)[C@H](C)N(C)C1=O [Compound 254] ([NMeL]I[NMeA][Aze][NMeS](Trifluoroethyl)[Sar][hPhe(3-Cl-4-CF3)]P[Ac5c][NMeV][NMeD]-Piperidide; lactam N-11) | > 500 | 15 |
| CCO[C@@H]1C[C@H]2C(=O)NC3(CCCC3)C(=O)N(C)[C@@H]([C@@H](C)CC)C(=O)N(C)[C@H](C)CC(=O)N(C)[C@@H](CC(C)C)C(=O)N[C@@H]([C@@H](C)CC)C(=O)N(C)CC(=O)N(C)CC(=O)N(C)[C@@H](Cc3ccc(C(F)(F)F)cc3)C(=O)N(C)CC(=O)N[C@@H](CCc3ccc(C(F)(F)F)c(Cl)c3)C(=O)N2C1 [Compound 695] (cyclo([Ac5c][NMeI][NMedβ3hAla][NMeL]I[Sar][Sar][NMePhe(4-CF3)][Sar][hPhe(3-Cl-4-CF3)][Hyp](Et))) | ≤ 20 | 2.3 |
| CC[C@H](C)[C@@H]1NC(=O)[C@H](C)N(C)C(=O)C[C@@H](C(=O)N2CCCCC2)N(C)C(=O)[C@H](C(C)C)N(C)C(=O)C2(CCCC2)NC(=O)[C@@H]2CCCN2C(=O)[C@H](CCc2ccc(C(F)(F)F)c(Cl)c2)NC(=O)CN(C)C(=O)[C@H](CC2CCCCC2)N(C)C(=O)[C@@H]2CCN2C(=O)[C@H](CCc2ccccc2)N(C)C1=O [Compound 1559] ([NMeA]I[NMehPhe][Aze][NMeCha][Sar][hPhe(3-Cl-4-CF3)]P[Ac5c][NMeV][NMeD]-Piperidide; lactam N-11) | > 500 | 28 |
| CC[C@H](C)[C@@H]1NC(=O)[C@H](C)N(C)C(=O)C[C@@H](C(=O)N2CCCCC2)N(C)C(=O)[C@H](C(C)C)N(C)C(=O)C2(CCCC2)NC(=O)[C@H](Cc2ccc(C)cc2)N(C)C(=O)[C@H](CCc2ccc(C(F)(F)F)c(Cl)c2)NC(=O)CN(C)C(=O)[C@H](CC2CCCCC2)N(C)C(=O)CN(C)C(=O)CN(C)C1=O [Compound 346] ([NMeA]I[Sar][Sar][NMeCha][Sar][hPhe(3-Cl-4-CF3)][NMePhe(4-Me)][Ac5c][NMeV][NMeD]-Piperidide; lactam N-11) | > 500 | 11 |
